Measurements taken from BindingDB's records for patent US20250230147 (Genentech, 2025).

Assays:
[1] = biological target: E3 ubiquitin-protein ligase CBL-B (Homo sapiens, UniProt Q13191); test: Cbl-b and c-Cbl SPR Assay
[2] = biological target: E3 ubiquitin-protein ligase CBL (Homo sapiens, UniProt P22681); test: Cbl-b and c-Cbl SPR Assay

Chain of E3 ubiquitin-protein ligase CBL-B (Q13191 whole entry): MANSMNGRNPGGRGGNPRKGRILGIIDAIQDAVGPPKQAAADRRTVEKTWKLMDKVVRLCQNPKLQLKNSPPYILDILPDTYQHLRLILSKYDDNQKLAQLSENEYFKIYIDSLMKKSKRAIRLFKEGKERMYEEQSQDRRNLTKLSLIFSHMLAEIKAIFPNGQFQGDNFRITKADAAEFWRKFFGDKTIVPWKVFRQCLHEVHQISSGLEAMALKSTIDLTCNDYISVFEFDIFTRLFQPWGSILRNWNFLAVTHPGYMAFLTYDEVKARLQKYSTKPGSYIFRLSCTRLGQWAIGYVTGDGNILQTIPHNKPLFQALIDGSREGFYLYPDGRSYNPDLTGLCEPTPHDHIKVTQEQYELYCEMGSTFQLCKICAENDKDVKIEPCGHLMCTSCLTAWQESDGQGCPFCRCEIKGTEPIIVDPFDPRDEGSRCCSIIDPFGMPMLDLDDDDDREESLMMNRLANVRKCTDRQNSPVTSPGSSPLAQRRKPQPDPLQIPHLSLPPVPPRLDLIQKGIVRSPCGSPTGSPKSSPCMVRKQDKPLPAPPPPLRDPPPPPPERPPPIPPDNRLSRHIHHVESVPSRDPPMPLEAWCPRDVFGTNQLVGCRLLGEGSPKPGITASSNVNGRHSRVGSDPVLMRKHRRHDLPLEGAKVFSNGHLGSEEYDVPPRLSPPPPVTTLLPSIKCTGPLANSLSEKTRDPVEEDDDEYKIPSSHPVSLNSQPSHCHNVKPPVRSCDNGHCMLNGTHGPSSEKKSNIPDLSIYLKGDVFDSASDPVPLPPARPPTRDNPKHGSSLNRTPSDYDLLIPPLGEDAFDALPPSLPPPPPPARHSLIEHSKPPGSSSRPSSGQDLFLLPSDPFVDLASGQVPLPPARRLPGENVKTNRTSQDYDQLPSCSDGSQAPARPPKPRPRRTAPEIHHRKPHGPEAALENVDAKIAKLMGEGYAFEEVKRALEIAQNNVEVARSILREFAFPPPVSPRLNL

Compound Cn1cnnc1[C@H](F)[C@](C)(F)c1cccc(N2Cc3c(cc(CN4CCC5(CC5)C4)cc3C(F)(F)F)C2=O)c1 [US20250230147, Compound 127] has an IC50 [1] of 77 nM and an IC50 [2] of 170 nM.

Compound Cn1cnnc1[C@H](F)[C@@](C)(F)c1cccc(N2Cc3c(cc(CN4CCC5(CC5)C4)cc3C(F)(F)F)C2=O)c1 [US20250230147, Compound 128] has an IC50 [1] of 480 nM and an IC50 [2] of 1600 nM.

Work on Cn1cnnc1[C@@H](F)[C@](C)(F)c1cccc(N2Cc3c(cc(CN4CCC5(CC5)C4)cc3C(F)(F)F)C2=O)c1 [US20250230147, Compound 129] yielded an IC50 [1] of 130 nM and an IC50 [2] of 460 nM.

Cn1cnnc1[C@@H](F)[C@@](C)(F)c1cccc(N2Cc3c(cc(CN4CCC5(CC5)C4)cc3C(F)(F)F)C2=O)c1 [US20250230147, Compound 130] gave an IC50 [1] of 4000 nM and an IC50 [2] of 13000 nM.

Cn1cnnc1[C@H](F)C1(c2cccc(N3Cc4c(Cl)cc(CNC5(C)CCC5)cc4C3=O)c2)COC1 [US20250230147, Compound 470] showed an IC50 [1] of 12 nM and an IC50 [2] of 8.5 nM.
